Assay results taken from US5980913A, “Peptides having immunomodulatory activity” (Biochem Pharma, Inc., priority 1994, dated 1999).
Where a SMILES comes first, the peptide text is derived from it.

Experiments:
B cells = experiment: Activation of B cells by mitogenic proliferation (LPS, PWM); assay type: cell-based, C57BL/6 mice
Description: c) Activation of T or B cells by Mitogenic Proliferation
A mitogenic lectin (mitogen) is a glycoprotein which binds and cross-links specific cells surface carbohydrate determinants, and will polyclonally stimulate lymphoid cells. Lymphocyte activation by either antigens or mitogens results in intracellular changes and the subsequent development into a lymphoblast. Mitogenic stimulation of lymphocytes in vitro is believed to mimic the series of events which occur in vivo following their stimulation by specific antigens. PHA and ConA; PWM and LPS mitogens can be used as a measurement of T cell and B cell activity, respectively. Briefly, the spleen mononuclear leukocytes from C57BL/6 mice are incubated in the presence or absence of mitogens with or without candidate drugs. After 72 hours or 5 days, ^3 H-thymidine incorporation is recorded as an indication of cell proliferation.
Lymphocytes were isolated from mice spleen or human blood in accordance to methods well known in the art. 100 μl of cell suspension of 2×10^6 cells/ml was added per well (2x10^5 cells/well) and incubated in the presence of lectin at the following concentrations:
PWM=0.2 to 0.02% final concentration
Cells were incubated for 3 days with PHA or ConA, or 5 days with PWM or LPS. 1 μCi of tritiated thymidine was added to each well for the last 6 hours (or 0.5 μCi for 18 hrs). The cells were harvested in a cell Harvester (Tortech®) and counted in a Beta counter.

[1] = tested on: spleen cell subsets (cell surface antigens); experiment: In vivo/ex vivo immunophenotyping in the spleen, mice treated 4 consecutive days; set-up: species or system C57BL/6 mice
Protocol: C57BL.backslash.6 mice are treated with 0, 50, 100, 200, and 300 mg/kg of drug (in saline) for 4 consecutive days. Blood is taken by cardiac puncture on day 5, and the lymphocytes are isolated from spleen in the following manner:
The spleen is aseptically removed and mashed by pressing against a steel strainer with a rubber plunger. The cell suspension is separated from the clumps by letting them settle at the bottom of the tube. The cell suspension is then separated on a Lymphocyte M layer and the interface is recovered and resuspended in media.
1. Immunophenotyping (blood and spleen)
Cell immunophenotyping is performed on blood and spleen. The following cell surface antigens are analyzed:
CD4 (T helper/inducer, binds class II-restricted T cells);
CD8 (cytotoxic T cells, CTL adhesion);
MAC-1 (monocyte/macrophage);
NK (natural killer cells);
CD45 (all leukocytes, protein tyrosine phosphatase).

In the case of `NCCCC[C@H](N)C(=O)N[C@@H](CC(N)=O)C(=O)N1CCC[C@H]1C(=O)N[C@@H](Cc1ccc(O)cc1)C(=O)O` [PEPTIDE #1, H-Lys-Asn-Pro-Tyr-OH] (H-KNPY-OH), the “Activation of B Cells, PWM” value (B cells; 10^-6 - 10^-4 M) is reported as 1.7 - 4 ×, the “Activation of B Cells, LPS” value (B cells; 10^-10 - 10^-4 M) is reported as 1.9 - 3.6 × and the “stimulation of B cells in vitro (in words)” value (B cells; summary of Table 1) is reported as “stimulates CTL's and B cells”. For the same compound, the “B cell subset, relative percentage” value ([1]; 50 mg/kg) was 11.60, the “CD4+ CD8+ cell subset, relative percentage” value ([1]; 50 mg/kg) was 1.10 and the “CD4+ CD8- cell subset, relative percentage” value ([1]; 50 mg/kg) was 38.30. For the same compound, the “CD4+ CD11+ cell subset, relative percentage” value ([1]; 50 mg/kg) was 0.17, the “CD4+ CD11- cell subset, relative percentage” value ([1]; 50 mg/kg) was 18.47 and the “CD4+ CD45+ cell subset, relative percentage” value ([1]; 50 mg/kg) was 33.30. For the same compound, the “CD4+ CD45- cell subset, relative percentage” value ([1]; 50 mg/kg) was 6.10, the “CD4- CD8+ cell subset, relative percentage” value ([1]; 50 mg/kg) was 16.15 and the “CD4- CD8- cell subset, relative percentage” value ([1]; 50 mg/kg) was 44.45. For the same compound, the “CD4- CD11+ cell subset, relative percentage” value ([1]; 50 mg/kg) was 1.20, the “CD4- CD11- cell subset, relative percentage” value ([1]; 50 mg/kg) was 80.17 and the “CD4- CD45+ cell subset, relative percentage” value ([1]; 50 mg/kg) was 58.65. The “CD4- CD45- cell subset, relative percentage” value ([1]; 50 mg/kg) was 1.95, the “CD8+ CD45+ cell subset, relative percentage” value ([1]; 50 mg/kg) was 16.90 and the “CD8+ CD45- cell subset, relative percentage” value ([1]; 50 mg/kg) was 0.10. For the same compound, the “CD8- CD45+ cell subset, relative percentage” value ([1]; 50 mg/kg) was 73.15, the “CD8- CD45- cell subset, relative percentage” value ([1]; 50 mg/kg) was 9.85 and the “CD45-8 cell subset, relative percentage” value ([1]; 50 mg/kg) was 60.70. For the same compound, the “CD45- Th1 cell subset, relative percentage” value ([1]; 50 mg/kg) was 39.10, the “NK+ CD3+ cell subset, relative percentage” value ([1]; 50 mg/kg) was 4.70 and the “NK+ CD3- cell subset, relative percentage” value ([1]; 50 mg/kg) was 7.47. For the same compound, the “NK- CD3+ cell subset, relative percentage” value ([1]; 50 mg/kg) was 42.80, the “NK- CD3- cell subset, relative percentage” value ([1]; 50 mg/kg) was 45.10 and the “B cell subset, relative percentage” value ([1]; 100 mg/kg) was 14.97. For the same compound, the “CD4+ CD8+ cell subset, relative percentage” value ([1]; 100 mg/kg) was 2.40, the “CD4+ CD8- cell subset, relative percentage” value ([1]; 100 mg/kg) was 32.30 and the “CD4+ CD11+ cell subset, relative percentage” value ([1]; 100 mg/kg) was 0.20. For the same compound, the “CD4+ CD11- cell subset, relative percentage” value ([1]; 100 mg/kg) was 18.23, the “CD4+ CD45+ cell subset, relative percentage” value ([1]; 100 mg/kg) was 30.90 and the “CD4+ CD45- cell subset, relative percentage” value ([1]; 100 mg/kg) was 3.80. The “CD4- CD8+ cell subset, relative percentage” value ([1]; 100 mg/kg) was 12.45, the “CD4- CD8- cell subset, relative percentage” value ([1]; 100 mg/kg) was 52.85 and the “CD4- CD11+ cell subset, relative percentage” value ([1]; 100 mg/kg) was 1.53. The “CD4- CD11- cell subset, relative percentage” value ([1]; 100 mg/kg) was 80.07, the “CD4- CD45+ cell subset, relative percentage” value ([1]; 100 mg/kg) was 61.45 and the “CD4- CD45- cell subset, relative percentage” value ([1]; 100 mg/kg) was 3.85. The “CD8+ CD45+ cell subset, relative percentage” value ([1]; 100 mg/kg) was 14.25, the “CD8+ CD45- cell subset, relative percentage” value ([1]; 100 mg/kg) was 0.05 and the “CD8- CD45+ cell subset, relative percentage” value ([1]; 100 mg/kg) was 76.35. The “CD8- CD45- cell subset, relative percentage” value ([1]; 100 mg/kg) was 9.35, the “CD45-8 cell subset, relative percentage” value ([1]; 100 mg/kg) was 65.55 and the “CD45- Th1 cell subset, relative percentage” value ([1]; 100 mg/kg) was 34.55. For the same compound, the “NK+ CD3+ cell subset, relative percentage” value ([1]; 100 mg/kg) was 4.40, the “NK+ CD3- cell subset, relative percentage” value ([1]; 100 mg/kg) was 7.93 and the “NK- CD3+ cell subset, relative percentage” value ([1]; 100 mg/kg) was 41.50. The “NK- CD3- cell subset, relative percentage” value ([1]; 100 mg/kg) was 46.20, the “B cell subset, relative percentage” value ([1]; 200 mg/kg) was 16.33 and the “CD4+ CD8+ cell subset, relative percentage” value ([1]; 200 mg/kg) was 2.27. For the same compound, the “CD4+ CD8- cell subset, relative percentage” value ([1]; 200 mg/kg) was 29.50, the “CD4+ CD11+ cell subset, relative percentage” value ([1]; 200 mg/kg) was 0.20 and the “CD4+ CD11- cell subset, relative percentage” value ([1]; 200 mg/kg) was 20.03. The “CD4+ CD45+ cell subset, relative percentage” value ([1]; 200 mg/kg) was 27.98, the “CD4+ CD45- cell subset, relative percentage” value ([1]; 200 mg/kg) was 3.77 and the “CD4- CD8+ cell subset, relative percentage” value ([1]; 200 mg/kg) was 12.49. For the same compound, the “CD4- CD8- cell subset, relative percentage” value ([1]; 200 mg/kg) was 40.94, the “CD4- CD11+ cell subset, relative percentage” value ([1]; 200 mg/kg) was 1.53 and the “CD4- CD11- cell subset, relative percentage” value ([1]; 200 mg/kg) was 78.27. The “CD4- CD45+ cell subset, relative percentage” value ([1]; 200 mg/kg) was 43.44, the “CD4- CD45- cell subset, relative percentage” value ([1]; 200 mg/kg) was 2.31 and the “CD8+ CD45+ cell subset, relative percentage” value ([1]; 200 mg/kg) was 12.36. The “CD8+ CD45- cell subset, relative percentage” value ([1]; 200 mg/kg) was 0.04, the “CD8- CD45+ cell subset, relative percentage” value ([1]; 200 mg/kg) was 62.30 and the “CD8- CD45- cell subset, relative percentage” value ([1]; 200 mg/kg) was 7.32. For the same compound, the “CD45-8 cell subset, relative percentage” value ([1]; 200 mg/kg) was 53.14, the “CD45- Th1 cell subset, relative percentage” value ([1]; 200 mg/kg) was 31.64 and the “NK+ CD3+ cell subset, relative percentage” value ([1]; 200 mg/kg) was 5.27. For the same compound, the “NK+ CD3- cell subset, relative percentage” value ([1]; 200 mg/kg) was 8.07, the “NK- CD3+ cell subset, relative percentage” value ([1]; 200 mg/kg) was 44.33 and the “NK- CD3- cell subset, relative percentage” value ([1]; 200 mg/kg) was 42.33. For the same compound, the “B cell subset, relative percentage” value ([1]; 300 mg/kg) was 14.60, the “CD4+ CD8+ cell subset, relative percentage” value ([1]; 300 mg/kg) was 4.33 and the “CD4+ CD8- cell subset, relative percentage” value ([1]; 300 mg/kg) was 34.30. The “CD4+ CD11+ cell subset, relative percentage” value ([1]; 300 mg/kg) was 0.53, the “CD4+ CD11- cell subset, relative percentage” value ([1]; 300 mg/kg) was 20.53 and the “CD4+ CD45+ cell subset, relative percentage” value ([1]; 300 mg/kg) was 35.00. For the same compound, the “CD4+ CD45- cell subset, relative percentage” value ([1]; 300 mg/kg) was 3.67, the “CD4- CD8+ cell subset, relative percentage” value ([1]; 300 mg/kg) was 16.17 and the “CD4- CD8- cell subset, relative percentage” value ([1]; 300 mg/kg) was 45.20. The “CD4- CD11+ cell subset, relative percentage” value ([1]; 300 mg/kg) was 2.23, the “CD4- CD11- cell subset, relative percentage” value ([1]; 300 mg/kg) was 76.67 and the “CD4- CD45+ cell subset, relative percentage” value ([1]; 300 mg/kg) was 57.40. The “CD4- CD45- cell subset, relative percentage” value ([1]; 300 mg/kg) was 3.97, the “CD8+ CD45+ cell subset, relative percentage” value ([1]; 300 mg/kg) was 19.77 and the “CD8+ CD45- cell subset, relative percentage” value ([1]; 300 mg/kg) was 0.03. For the same compound, the “CD8- CD45+ cell subset, relative percentage” value ([1]; 300 mg/kg) was 69.93, the “CD8- CD45- cell subset, relative percentage” value ([1]; 300 mg/kg) was 10.30 and the “CD45-8 cell subset, relative percentage” value ([1]; 300 mg/kg) was 61.63. The “CD45- Th1 cell subset, relative percentage” value ([1]; 300 mg/kg) was 38.43, the “NK+ CD3+ cell subset, relative percentage” value ([1]; 300 mg/kg) was 9.47 and the “NK+ CD3- cell subset, relative percentage” value ([1]; 300 mg/kg) was 10.83. The “NK- CD3+ cell subset, relative percentage” value ([1]; 300 mg/kg) was 41.10, the “NK- CD3- cell subset, relative percentage” value ([1]; 300 mg/kg) was 38.63 and the “change of relative percentage of CD8+CD45+ (cytotoxic T cells) subset (in words)” value ([1]; 200 and 300 mg/kg) was “significant increase”. The “change of relative percentage of NK+CD3+ (NK cells) subset (in words)” value ([1]; 200 and 300 mg/kg) was “significant increase”.
